How the values were obtained:
[1] = system: OVCAR-3; experiment: Growth inhibition of human OVCAR-3 cells incubated for 3 days by CellTiter-Glo luminescent assay; format: functional; conditions: OVCAR-3, 72 h, time 3 day
[2] = system: SK-OV-3; experiment: Growth inhibition of human SK-OV-3 cells incubated for 3 days by CellTiter-Glo luminescent assay; format: functional; conditions: SK-OV-3, 72 h, time 3 day

## CC[C@H](C)[C@@H]([C@@H](CC(=O)N1CCC[C@H]1[C@H](OC)[C@@H](C)CC(=O)N[C@H](C)[C@@H](C)c1ccccc1)OC)N(C)C(=O)[C@@H](NC(=O)[C@H](C(C)C)N(C)C(=O)OCc1ccc(NC(=O)[C@H](CCCNC(N)=O)NC(=O)[C@@H](NC(=O)CCCCCN2C(=O)CC(SCC[C@@H](NC(=O)[C@H](Cc3ccc(O)cc3)NC(=O)[C@H](CO)NC(=O)[C@H](Cc3c[nH]c4ccccc34)NC(=O)[C@H](Cc3cnc[nH]3)NC(=O)[C@@H]3CCC(=O)N3)C(=O)N[C@@H](CC(C)C)C(=O)N[C@@H](CCCNC(=N)N)C(=O)N3CCC[C@H]3C(=O)NCC(N)=O)C2=O)C(C)C)cc1)C(C)C (some centres not stated)
[1]
  GI50: 4 nM
[2]
  GI50: 453 nM
